Literature values in patent US9636319B1, “Fumarate ester dosage forms” (priority 2015, dated 2017).
Where a name gives a salt, the structure may show the parent alone.

What was measured:
[1] = test system: Nuclear factor (erythroid-derived 2)-like 2 (Nrf2) pathway; conditions: in vitro and in vivo in animals and humans
[2] = test system: Human plasma protein; conditions: independent of concentration

Row | quantifiability in plasma following oral administration (human, in vivo, po) | Tmax without meal (MMF in plasma, before the delay by a meal) | Tmax with meal (MMF in plasma, high-fat, high-calorie meal) | median Tmax of MMF ([…]) | effect of a meal on AUC (high-fat, high-calorie meal) | decrease of Cmax by a meal (high-fat, high-calorie meal, MMF in plasma) | terminal half-life (human, in vivo) | involvement of the cytochrome P450 (CYP) system in metabolism (metabolism through the tricarboxylic acid (TCA) cycle) | Human plasma protein binding [2] | SMILES | Nrf2 pathway activation [1] | dose dependence of Cmax and AUCoverall (dose range 120 mg to 360 mg) | reduction in the incidence of flushing (fed / postprandial state) | circulating MMF at 24 hours (human, in vivo)
1 | not quantifiable | – | – | – | – | – | – | – | – | COC(=O)/C=C/C(=O)OC [DMF, dimethyl fumarate] | activate | – | – | –
2 | – | 2.0 h | 5.5 h | 2 to 2.5 h | did not affect | 40% | approximately 1 hour | no involvement | 27-45% | COC(=O)/C=C/C(=O)O [MMF, monomethyl fumarate] | – | increased approximately dose proportionally | approximately 25% | no circulating MMF is present at 24 hours in the majority of individuals
